Data as given in patent US12624034B2, “Non-covalent modifiers of AKT1 and uses thereof” (Terremoto Biosciences, Inc., priority 2023, dated 2026).

How the values were obtained:
AKT1 WT = target: T1, AKT1 WT (Homo sapiens, UniProt P31749); assay: Live cell AKT1 WT target engagement by NanoBRET competitive probe displacement in HEK293 cells; type: binding; conditions: NanoBRET competitive probe displacement, live HEK293 cells, 2 h at 37° C.; read-out: AKT1 WT IC50
T1 construct: expressed in transfected cells; host or cells: HEK293

AKT2 = target: T2, AKT2 (Homo sapiens, UniProt P31751); assay: Live cell AKT2 target engagement by NanoBRET competitive probe displacement in HEK293 cells; type: binding; conditions: NanoBRET competitive probe displacement, live HEK293 cells, 2 h at 37° C.; read-out: AKT2 IC50
T2 construct: expressed in transfected cells; host or cells: HEK293
T2 sequence (P31751 whole entry): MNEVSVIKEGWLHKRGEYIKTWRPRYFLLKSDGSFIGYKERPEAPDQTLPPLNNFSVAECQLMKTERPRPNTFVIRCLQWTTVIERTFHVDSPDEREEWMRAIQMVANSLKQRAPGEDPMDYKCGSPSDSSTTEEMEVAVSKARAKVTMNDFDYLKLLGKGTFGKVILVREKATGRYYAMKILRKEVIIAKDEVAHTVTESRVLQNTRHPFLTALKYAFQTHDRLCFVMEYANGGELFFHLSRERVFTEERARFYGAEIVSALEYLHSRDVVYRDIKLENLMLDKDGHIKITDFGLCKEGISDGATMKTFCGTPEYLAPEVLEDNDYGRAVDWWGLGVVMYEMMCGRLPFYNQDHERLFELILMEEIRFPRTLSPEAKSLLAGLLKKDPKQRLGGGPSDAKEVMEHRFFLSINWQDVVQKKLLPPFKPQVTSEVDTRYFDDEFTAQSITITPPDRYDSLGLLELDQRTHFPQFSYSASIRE

T1 sequence (P31749 whole entry): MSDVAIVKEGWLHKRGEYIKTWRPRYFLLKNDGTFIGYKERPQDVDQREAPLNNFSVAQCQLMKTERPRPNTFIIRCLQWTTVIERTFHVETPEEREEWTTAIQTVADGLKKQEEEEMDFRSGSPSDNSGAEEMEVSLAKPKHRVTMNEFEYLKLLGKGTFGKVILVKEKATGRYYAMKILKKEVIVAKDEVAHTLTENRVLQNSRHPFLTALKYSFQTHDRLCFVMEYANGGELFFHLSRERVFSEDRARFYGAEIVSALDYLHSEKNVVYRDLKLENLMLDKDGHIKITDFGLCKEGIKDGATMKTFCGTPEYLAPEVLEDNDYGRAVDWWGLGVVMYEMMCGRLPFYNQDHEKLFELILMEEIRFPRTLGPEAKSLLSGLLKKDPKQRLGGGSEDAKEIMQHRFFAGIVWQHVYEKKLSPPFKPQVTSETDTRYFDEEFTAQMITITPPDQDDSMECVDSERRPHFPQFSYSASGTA

Compound `N#Cc1cc(-n2nccn2)nc2c1nc(-c1cccnc1N)n2-c1ccc2c(c1)CC[C@@H]2NC(=O)c1ccc(C(F)F)nc1` [Compound 548] has an IC50 (AKT1 WT) of 27.4 nM and an IC50 (AKT2) of 4080 nM.

`Cn1ccc(N2CCC(N[C@H]3CCc4cc(-n5c(-c6cccnc6N)nc6ccc(-n7ccc(C8CCOCC8)n7)nc65)ccc43)CC2)n1` [Compound 549] was tested, and the IC50 (AKT1 WT) was 27.6 nM and the IC50 (AKT2) was 723 nM.

Compound `COCCOc1ccn(-c2ccc3nc(-c4cccnc4N)n(-c4ccc5c(c4)CC[C@@H]5NC4CCN(c5ccn(C)n5)CC4)c3n2)n1` [Compound 551] has an IC50 (AKT1 WT) of 13.1 nM and an IC50 (AKT2) of 296 nM.

For `Nc1ncccc1-c1nc2ccc(-n3ccc(N4CC5CC(C4)O5)n3)nc2n1-c1ccc2c(c1)CC(F)[C@@H]2NC1CCN(C(=O)C2CC2)CC1` (stereo partly shown) [Compound 552], the IC50 (AKT1 WT) was 9.18 nM and the IC50 (AKT2) was 166 nM.

In the case of `COC1CN(c2ccn(-c3ccc4nc(-c5cccnc5N)n(-c5ccc6c(c5)CC(F)[C@@H]6NC5CCN(C(=O)C6CC6)CC5)c4n3)n2)C1` (stereo partly shown) [Compound 553], the IC50 (AKT1 WT) is reported as 7.04 nM and the IC50 (AKT2) is reported as 344 nM.

Compound `CS(=O)(=O)c1ccn(-c2ccc3nc(-c4cccnc4N)n(-c4ccc5c(c4)CC[C@@H]5NC4CCN(C(=O)C5CC5)CC4)c3n2)n1` [Compound 554] has an IC50 (AKT1 WT) of 339 nM and an IC50 (AKT2) of 9260 nM.

Compound `Nc1ncccc1-c1nc2ccc(-c3ccn(C4CCOCC4)n3)nc2n1-c1ccc2c(c1)CC[C@@H]2NC1CCN(C(=O)C2CC2)CC1` [Compound 555] has an IC50 (AKT1 WT) of 64.4 nM and an IC50 (AKT2) of 1570 nM.

With `Nc1ncccc1-c1nc2ccc(-c3cnccn3)nc2n1-c1ccc2c(c1)CC[C@@H]2NC1CCN(C(=O)C2CC2)CC1` [Compound 556] the IC50 (AKT1 WT) was 124 nM and the IC50 (AKT2) was 1330 nM.

Compound `Nc1ncccc1-c1nc2ccc(-n3cccn3)nc2n1-c1ccc2c(c1)CC[C@@H]2N(C1CC1)C1CCN(C(=O)C2CC2)CC1` [Compound 557] has an IC50 (AKT1 WT) of 15.9 nM and an IC50 (AKT2) of 1760 nM.

In the case of `Cn1ccc(Oc2ccc3nc(-c4cccnc4N)n(-c4ccc5c(c4)CC[C@@H]5NC(=O)c4cnc(C(F)F)s4)c3n2)n1` [Compound 558], the IC50 (AKT1 WT) is reported as 71.5 nM and the IC50 (AKT2) is reported as 7510 nM.

`COc1csc(-c2ccc3nc(-c4cccnc4N)n(-c4ccc5c(c4)CC(F)[C@@H]5NC4CCN(C(=O)C5CC5)CC4)c3n2)n1` (stereo partly shown) [Compound 559] was tested, and the IC50 (AKT1 WT) was 5.67 nM and the IC50 (AKT2) was 268 nM.

In the case of `Nc1ncccc1-c1nc2ccc(-n3ccc(OC(F)F)n3)nc2n1-c1ccc2c(c1)CC[C@@H]2NC1[C@@H]2COC[C@H]1CN(C(=O)C1CC1)C2` (stereo partly shown) [Compound 560], the IC50 (AKT1 WT) is reported as 249 nM and the IC50 (AKT2) is reported as 2520 nM.

Compound `Nc1ncccc1-c1nc2ccc(-n3ccc(OC(F)F)n3)nc2n1-c1ccc2c(c1)CC[C@@H]2NC1[C@@H]2COC[C@H]1CN(C(=O)C1CC1)C2` (stereo partly shown) [Compound 561] has an IC50 (AKT1 WT) of 93.3 nM and an IC50 (AKT2) of 3090 nM.

In the case of `Nc1ncccc1-c1nc2ccc(-n3ccc(N4CCC4)n3)nc2n1-c1ccc2c(c1)CC[C@@H]2NC1CCN(C(=O)C2CC2)CC1` [Compound 562], the IC50 (AKT1 WT) is reported as 9.77 nM and the IC50 (AKT2) is reported as 430 nM.

In the case of `CN1CCN(c2ccn(-c3ccc4nc(-c5cccnc5N)n(-c5ccc6c(c5)CC[C@@H]6NC5CCN(C(=O)C6CC6)CC5)c4n3)n2)CC1` [Compound 563], the IC50 (AKT1 WT) is reported as 1.83 nM and the IC50 (AKT2) is reported as 37.8 nM.

`COC1CCN(c2ccn(-c3ccc4nc(-c5cccnc5N)n(-c5ccc6c(c5)CC[C@@H]6NC5CCN(C(=O)C6CC6)CC5)c4n3)n2)CC1` [Compound 564] was tested, and the IC50 (AKT1 WT) was 2.28 nM and the IC50 (AKT2) was 84.4 nM.

Work on `Nc1ncccc1-c1nc2ccc(-n3ccc(N4CCS(=O)(=O)CC4)n3)nc2n1-c1ccc2c(c1)CC[C@@H]2NC1CCN(C(=O)C2CC2)CC1` [Compound 565] yielded an IC50 (AKT1 WT) of 9.86 nM and an IC50 (AKT2) of 274 nM.

`CN1CC(Oc2ccn(-c3ccc4nc(-c5cccnc5N)n(-c5ccc6c(c5)CC[C@@H]6NC5CCN(C(=O)C6CC6)CC5)c4n3)n2)C1` [Compound 566] gave an IC50 (AKT1 WT) of 10.5 nM and an IC50 (AKT2) of 246 nM.

`Nc1ncccc1-c1nc2ccc(-n3ccc(OC4COC4)n3)nc2n1-c1ccc2c(c1)CC[C@@H]2NC1CCN(C(=O)C2CC2)CC1` [Compound 567] was tested, and the IC50 (AKT1 WT) was 11.3 nM and the IC50 (AKT2) was 455 nM.

In the case of `Nc1ncccc1-c1nc2ccc(-n3ccc(Oc4cccnc4)n3)nc2n1-c1ccc2c(c1)CC[C@@H]2NC1CCN(C(=O)C2CC2)CC1` [Compound 568], the IC50 (AKT1 WT) is reported as 8.72 nM and the IC50 (AKT2) is reported as 458 nM.

`CC(C)(O)c1ccn(-c2ccc3nc(-c4cccnc4N)n(-c4ccc5c(c4)CC[C@@H]5NC4CCN(C(=O)C5CC5)CC4)c3n2)n1` [Compound 569] gave an IC50 (AKT1 WT) of 77.4 nM and an IC50 (AKT2) of 808 nM.

With `CN1CCC(n2ccc(-c3ccc4nc(-c5cccnc5N)n(-c5ccc6c(c5)CC[C@@H]6NC5CCN(C(=O)C6CC6)CC5)c4n3)n2)CC1` [Compound 570] the IC50 (AKT1 WT) was 47.5 nM and the IC50 (AKT2) was 679 nM.

In the case of `N[C@@H]1c2ccc(-n3c(-c4ccccc4F)nc4ccc(-n5ccc(N6CCOCC6)n5)nc43)cc2CC1F` (stereo partly shown) [Compound 571], the IC50 (AKT1 WT) is reported as 2.22 nM and the IC50 (AKT2) is reported as 176 nM.

In the case of `O=C(C1CC1)N1CCC(N[C@@H]2c3ccc(-n4c(-c5ccccc5F)nc5ccc(-n6ccc(N7CCOCC7)n6)nc54)cc3CC2F)CC1` (stereo partly shown) [Compound 572], the IC50 (AKT1 WT) is reported as 16.1 nM and the IC50 (AKT2) is reported as 945 nM.

For `Cn1ccc(=O)n1-c1ccn(-c2ccc3nc(-c4cccnc4N)n(-c4ccc5c(c4)CC[C@@H]5NC4CCN(C(=O)C5CC5)CC4)c3n2)n1` [Compound 573], the IC50 (AKT1 WT) was 318 nM and the IC50 (AKT2) was 5640 nM.

`Nc1ncccc1-c1nc2ccc(-n3ccc(Oc4ccccn4)n3)nc2n1-c1ccc2c(c1)CC[C@@H]2NC1CCN(C(=O)C2CC2)CC1` [Compound 574] showed an IC50 (AKT1 WT) of 52.4 nM and an IC50 (AKT2) of 2420 nM.

With `Nc1ncccc1-c1nc2ccc(-n3ccc(Oc4ccncc4)n3)nc2n1-c1ccc2c(c1)CC[C@@H]2NC1CCN(C(=O)C2CC2)CC1` [Compound 575] the IC50 (AKT1 WT) was 221 nM and the IC50 (AKT2) was 3300 nM.

For `COc1cncc(-c2ccc3nc(-c4cccnc4N)n(-c4ccc5c(c4)CC[C@@H]5NC4CCN(C(=O)C5CC5)CC4)c3n2)n1` [Compound 577], the IC50 (AKT1 WT) was 87.9 nM and the IC50 (AKT2) was 904 nM.

Work on `Cn1c(C(=O)N[C@H]2CCc3cc(-n4c(-c5cccnc5N)nc5ccc(-n6nccn6)nc54)ccc32)cnc1C(F)F` [Compound 578] yielded an IC50 (AKT1 WT) of 74.9 nM and an IC50 (AKT2) of 1690 nM.

Compound `CS(=O)(=O)Nc1ccn(-c2ccc3nc(-c4cccnc4N)n(-c4ccc5c(c4)CC[C@@H]5NC4CCN(C(=O)C5CC5)CC4)c3n2)n1` [Compound 582] has an IC50 (AKT1 WT) of over 1000 nM and an IC50 (AKT2) of over 10000 nM.

With `C#Cc1cc(-n2nccn2)nc2c1nc(-c1cccnc1N)n2-c1ccc2c(c1)CC[C@@H]2NC(=O)c1ccc(C(F)F)nc1` [Compound 583] the IC50 (AKT1 WT) was 805 nM and the IC50 (AKT2) was 3780 nM.

`C#Cc1cc(-n2nccn2)nc2c1nc(-c1cccnc1N)n2-c1ccc2c(c1)CC[C@@H]2NC(=O)c1ccc(C)nc1` [Compound 587] was tested, and the IC50 (AKT1 WT) was 116 nM and the IC50 (AKT2) was 1010 nM.

Work on `Nc1ncccc1-c1nc2ccc(-n3ncc(C4CC4)n3)nc2n1-c1ccc2c(c1)CC[C@@H]2NC(=O)c1cnc(C(F)F)s1` [Compound 588] yielded an IC50 (AKT1 WT) of 27 nM and an IC50 (AKT2) of 764 nM.

In the case of `CN(C)c1ccn(-c2ccc3nc(-c4cccnc4N)n(-c4ccc5c(c4)CC[C@@H]5NC4CCN(c5ccn(C)n5)CC4)c3n2)n1` [Compound 589], the IC50 (AKT1 WT) is reported as 16.8 nM and the IC50 (AKT2) is reported as 650 nM.

Work on `COCc1ccn(-c2ccc3nc(-c4cccnc4N)n(-c4ccc5c(c4)CC[C@@H]5NC4CCN(C(=O)C5CC5)CC4)c3n2)n1` [Compound 590] yielded an IC50 (AKT1 WT) of 45.2 nM and an IC50 (AKT2) of 1540 nM.

With `CN(C)C(=O)c1ccn(-c2ccc3nc(-c4cccnc4N)n(-c4ccc5c(c4)CC[C@@H]5NC4CCN(C(=O)C5CC5)CC4)c3n2)n1` [Compound 591] the IC50 (AKT1 WT) was 25.2 nM and the IC50 (AKT2) was 962 nM.

`COc1cnn(-c2ccc3nc(-c4cccnc4N)n(-c4ccc5c(c4)CC[C@@H]5NC(=O)c4cnc(C(F)F)s4)c3n2)n1` [Compound 594] showed an IC50 (AKT1 WT) of 27.6 nM and an IC50 (AKT2) of 2690 nM.

`Nc1ncccc1-c1nc2ccc(-n3ncc(OC(F)F)n3)nc2n1-c1ccc2c(c1)CC[C@@H]2NC(=O)c1cnc(C(F)F)s1` [Compound 595] was tested, and the IC50 (AKT1 WT) was 15 nM and the IC50 (AKT2) was 520 nM.

For `Cn1ccc(N2CCC(N[C@H]3CCc4cc(-n5c(-c6cccnc6N)nc6ccc(-n7ccc(N8CCC8)n7)nc65)ccc43)CC2)n1` [Compound 596], the IC50 (AKT1 WT) was 12.9 nM and the IC50 (AKT2) was 689 nM.

For `Nc1ncccc1-c1nc2ccc(-n3ccc(C4COC4)n3)nc2n1-c1ccc2c(c1)CC[C@@H]2NC1CCN(C(=O)C2CC2)CC1` [Compound 597], the IC50 (AKT1 WT) was 66.1 nM and the IC50 (AKT2) was 3780 nM.

For `CN1CCN(c2ccn(-c3ccc4nc(-c5cccnc5N)n(-c5ccc6c(c5)CC[C@@H]6NC5CCN(c6ccn(C)n6)CC5)c4n3)n2)CC1` [Compound 598], the IC50 (AKT1 WT) was 3.8 nM and the IC50 (AKT2) was 40.5 nM.

`Nc1ncccc1-c1nc2ccc(-n3ccc(NC4CC4)n3)nc2n1-c1ccc2c(c1)CC[C@@H]2NC1CCN(C(=O)C2CC2)CC1` [Compound 599] gave an IC50 (AKT1 WT) of 25.4 nM and an IC50 (AKT2) of 1280 nM.

For `Nc1ncccc1-c1nc2ccc(-n3cccn3)nc2n1-c1ccc2c(c1)CC[C@@H]2NC1CCc2nc(C(F)F)sc21` (stereo partly shown) [Compound 600], the IC50 (AKT1 WT) was 418 nM and the IC50 (AKT2) was 7070 nM.

`Nc1ncccc1-c1nc2ccc(-n3cccn3)nc2n1-c1ccc2c(c1)CC[C@@H]2NC1CCc2nc(C(F)F)sc21` (stereo partly shown) [Compound 601] gave an IC50 (AKT1 WT) of 102 nM and an IC50 (AKT2) of 2500 nM.
